This note sets out measurements from patent US10376481B2, “Compounds and methods for inhibiting NHE-mediated antiport in the treatment of disorders associated with fluid retention or salt overload and gastrointestinal tract disorders” (ARDELYX, INC, priority 2012, dated 2019).

Assay [1] deals with T1, human NHE3 (Homo sapiens, UniProt P48764).
T1 sequence (P48764 26-834): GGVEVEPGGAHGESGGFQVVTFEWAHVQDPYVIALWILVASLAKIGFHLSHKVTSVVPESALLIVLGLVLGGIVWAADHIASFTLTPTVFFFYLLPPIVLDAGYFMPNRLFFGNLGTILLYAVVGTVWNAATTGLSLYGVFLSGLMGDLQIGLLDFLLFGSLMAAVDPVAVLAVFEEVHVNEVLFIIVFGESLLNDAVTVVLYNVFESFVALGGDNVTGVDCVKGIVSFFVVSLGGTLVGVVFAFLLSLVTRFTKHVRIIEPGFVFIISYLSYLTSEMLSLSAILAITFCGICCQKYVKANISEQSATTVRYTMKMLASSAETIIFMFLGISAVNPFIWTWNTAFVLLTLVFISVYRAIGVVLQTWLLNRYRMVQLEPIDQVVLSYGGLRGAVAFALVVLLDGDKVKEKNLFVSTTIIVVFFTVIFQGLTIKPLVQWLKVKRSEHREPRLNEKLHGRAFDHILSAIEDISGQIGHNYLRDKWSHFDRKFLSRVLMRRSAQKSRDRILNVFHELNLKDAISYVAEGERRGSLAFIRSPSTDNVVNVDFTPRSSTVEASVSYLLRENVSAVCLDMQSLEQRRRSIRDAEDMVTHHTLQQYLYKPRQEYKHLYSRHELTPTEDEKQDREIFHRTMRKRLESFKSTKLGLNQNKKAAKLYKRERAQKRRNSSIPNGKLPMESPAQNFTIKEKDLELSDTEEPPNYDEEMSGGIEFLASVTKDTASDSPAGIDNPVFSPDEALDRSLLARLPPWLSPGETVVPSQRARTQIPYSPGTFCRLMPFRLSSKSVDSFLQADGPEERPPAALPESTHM
Nature of the assay: Cell-based assay of NHE-3 activity (pre-incubation inhibition), human. The conditions noted are these: for IC50: PS120 fibroblasts stably expressing human NHE3, 10 min pre-incubation with 0-30 μM test compound, read-out: pIC50 (human Preincubation assay) (converted); for % inhibition (human Preincubation assay): PS120 fibroblasts stably expressing human NHE3, pre-incubation with test compound. The method, then: Rat and human NHE-3-mediated Na^+-dependent H^+ antiport was measured using a modification of the pH sensitive dye method originally reported by Paradiso (Proc. Natl. Acad. Sci. USA. (1984) 81(23): 7436-7440, which is hereby incorporated by reference in its entirety). PS120 fibroblasts stably expressing human NHE3 were obtained from Mark Donowitz (Baltimore, Md.). Opossum kidney (OK) cells were obtained from the ATCC and propagated per their instructions. The rat NHE-3 gene (GenBank M85300) was introduced into OK cells via electroporation, and cells were seeded into 96 well plates and grown overnight. Medium was aspirated from the wells then incubated for 30 min at 37° C. with NH4Cl-HEPES buffer (20 mM NH4Cl, 80 mM NaCl, 50 mM HEPES, 5 mM KCl, 2 mM CaCl2, 1 mM MgCl2, pH 7.4) containing 5 μM BCECF-AM. Cells were washed once with Ammonium free, Nat-free HEPES (100 mM choline, 50 mM HEPES, 10 mM glucose, 5 mM KCl, 2 mM CaCl2, 1 mM MgCl2, pH 7.4) and incubated in the same buffer for 10 minutes at room temperature to lower intracellular pH with 0-30 μM test compound. […] Changes in intracellular pH were monitored using a FLIPR Tetra® (Molecular Devices, Sunnyvale, Calif.) by excitation at λex 439 to 505 nm, and measuring BCECF fluorescence at λem 538 nm. The initial rate of the fluorescence ratio change was used as a measure of NHE-mediated Na^+/H^+ activity, and reported as the change in fluorescence ratio per minute. Initial rates were plotted as the average 2 or more replicates, and pIC50 values were estimated using GraphPad Prism.

The subject of assay [2] is absorption of sodium from the intestinal lumen. Kind of assay: Inhibition of intestinal sodium absorption: rat urinary sodium and fecal form 16 h post-dose. The format is in vivo, Sprague-Dawley rats. The conditions noted are these: oral gavage 10 mg/kg; for response vs control in vivo at 10 mg/kg: urine 16 h post-dose, read-out: uNa Result, uNa (% of vehicle); for FFS (fecal form score): 16 h post-dose, scale 1-5, group average. As for the experimental part: Urinary sodium concentration and fecal form were measured to assess the ability of selected example compounds to inhibit the absorption of sodium from the intestinal lumen. Eight-week old Sprague-Dawley rats were purchased from Charles River Laboratories (Hollister, Calif.), were housed 2 per cage, and acclimated for at least 3 days before study initiation. Animals were fed Harlan Teklad Global 2018 rodent chow (Indianapolis, Ind.) and water ad libitum throughout the study and maintained in a standard light/dark cycle of 6 AM to 6 PM. On the day of the study, between 4 PM and 5 PM, a group of rats (n=6) were dosed via oral gavage with test compound or vehicle (water) at a volume of 10 mL/kg. After dose administration animals were placed in individual metabolic cages where they were also fed the same chow in meal form and watered ad libitum. At 16 h post-dose, the urine samples were collected and fecal form was assessed by two independent observations. Fecal forms were scored according to a common scale associated with increasing fecal water to the wettest observation in the cage's collection funnel (1, normal pellet; 2, pellet adhering to sides of collection funnel due to moisture; 3, loss of normal pellet shape; 4, complete loss of shape with a blotting pattern; 5, liquid fecal streams evident). A rat's fecal form score (FFS) was determined by averaging both observational scores for all rats within a group (n=6). The vehicle group average was 1. For urine samples, the volumes were determined gravimetrically and centrifuged at 3,600×g. The supernatants were diluted 100-fold in deionized Milli-Q water then filtered through a 0.2 μm GHP Pall AcroPrep filter plate (Pall Life Sciences, Ann Arbor, Mich.) prior to analysis by ion chromatography. Ten microliters of each filtered extract was injected onto a Dionex ICS-3000 ion chromatograph system (Dionex, Sunnyvale, Calif.). Cations were separated by an isocratic method using 25 mM methanesulfonic acid as the eluent on an IonPac CS12A 2 mm i.d.×250 mm, 8 μm particle size cation exchange column (Dionex). Sodium was quantified using standards prepared from a cation standard mix containing Li^+, Na^+, NH4^+, K^+, Mg^2+, and Ca^2+ (Dionex). The mean mass of sodium urinated for every group in the 16 h period was determined with the vehicle group usually urinating approximately 21 mg sodium. The urine Na (uNa) for rats in the test groups were expressed as a percentage of the vehicle mean and the means were compared to that of the vehicle group by utilizing a one-way analysis of variance coupled with a Dunnett's post hoc test.

As to `CN(C)[C@H]1Cc2c(F)cc(Cl)cc2[C@@H]1Oc1ccc(S(=O)(=O)NCCOCCOCCNC(=O)NCCCCNC(=O)NCCOCCOCCNS(=O)(=O)c2ccc(O[C@H]3c4cc(Cl)cc(F)c4C[C@@H]3N(C)C)cc2)cc1` [Example 25], in assay [1], the IC50 was under 100 nM and the “% inhibition (human Preincubation assay)” value is recorded as “C (>70%)”. In assay [2], the response vs control in vivo at 10 mg/kg is over 75%.
Consider `CN(C)[C@H]1Cc2c(Cl)cc(Cl)cc2[C@@H]1Oc1ccc(S(=O)(=O)NCCOCCOCCNC(=O)C(C)(C)C(=O)NCCOCCOCCNS(=O)(=O)c2ccc(O[C@H]3c4cc(Cl)cc(Cl)c4C[C@@H]3N(C)C)cc2)cc1` [Example 36], for which, in assay [1], the IC50 was 100 to 1000 nM and the “% inhibition (human Preincubation assay)” value is “C (>70%)”. In assay [2], the “FFS (fecal form score)” value was determined as 2 and the response vs control in vivo at 10 mg/kg is 35 to 75%.
Regarding `O=C(NCCCCNC(=O)NCCOCCOCCNS(=O)(=O)c1ccc(O[C@H]2c3cc(Cl)cc(Cl)c3C[C@@H]2N2CCCCC2)cc1)NCCOCCOCCNS(=O)(=O)c1ccc(O[C@H]2c3cc(Cl)cc(Cl)c3C[C@@H]2N2CCCCC2)cc1` [Example 15], in assay [1], the IC50 was under 100 nM and the “% inhibition (human Preincubation assay)” value is reported as “B (40-70%)”. Moreover, the response vs control in vivo at 10 mg/kg in assay [2] lay in the range of 35 to 75%.
As for `O=C(NCCCCNC(=O)NCCOCCOCCNC(=O)Nc1cccc(O[C@H]2c3ccccc3C[C@@H]2N2CCCCC2)c1)NCCOCCOCCNC(=O)Nc1cccc(O[C@H]2c3ccccc3C[C@@H]2N2CCCCC2)c1` [Example 13, 1-{2-[2-(2-{[(3-{[(1S,2S)-2-(piperidin-1-yl)-2,3-dihydro-1H-inden-1-yl]oxy}phenyl)carbamoyl]amino}ethoxy)ethoxy]ethyl}-3-{4-[({2-[2-(2-{[(3-{[(1S,2S)-2-(piperidin-1-yl)-2,3-dihydro-1H-inden-1-yl]oxy}phenyl)carbamoyl]amino}ethoxy)ethoxy]ethyl}carbamoyl)amino]butyl}urea], in assay [1], the IC50 is over 1000 nM and the “% inhibition (human Preincubation assay)” value is reported as “C (>70%)”. Further, the response vs control in vivo at 10 mg/kg in assay [2] is over 75%.
Taken in the same sequence, the figures for `CN(C)[C@H]1Cc2ccc(Cl)cc2[C@@H]1Oc1ccc(S(=O)(=O)NCCOCCOCCNC(=O)NCCCCNC(=O)NCCOCCOCCNS(=O)(=O)c2ccc(O[C@H]3c4cc(Cl)ccc4C[C@@H]3N(C)C)cc2)cc1` [Example 21] were under 100 nM, “C (>70%)” and over 75%.
As for `O=C(NCCCCNC(=O)NCCOCCOCCNS(=O)(=O)c1ccc(O[C@H]2c3cc(F)ccc3C[C@@H]2N2CCCCC2)cc1)NCCOCCOCCNS(=O)(=O)c1ccc(O[C@H]2c3cc(F)ccc3C[C@@H]2N2CCCCC2)cc1` [Example 23], in assay [1], the IC50 was under 100 nM and the “% inhibition (human Preincubation assay)” value is reported as “C (>70%)”. Besides, in assay [2], the “FFS (fecal form score)” value is 1 and the response vs control in vivo at 10 mg/kg is over 75%.
On to `CN(C)[C@H]1Cc2ccc(F)cc2[C@@H]1Oc1ccc(S(=O)(=O)NCCOCCOCCNC(=O)NCCCCNC(=O)NCCOCCOCCNS(=O)(=O)c2ccc(O[C@H]3c4cc(F)ccc4C[C@@H]3N(C)C)cc2)cc1` [Example 22], for which, in assay [1], the IC50 is under 100 nM and the “% inhibition (human Preincubation assay)” value is listed as “C (>70%)”. Also, in assay [2], the response vs control in vivo at 10 mg/kg is over 75%.
As for `CN(C)[C@H]1Cc2c(Cl)cc(Cl)cc2[C@@H]1Oc1ccc(S(=O)(=O)NCCOCCOCCNC(=O)[C@H](O)[C@@H](O)C(=O)NCCOCCOCCNS(=O)(=O)c2ccc(O[C@H]3c4cc(Cl)cc(Cl)c4C[C@@H]3N(C)C)cc2)cc1` [Example 5, (2R,3R)—N1,N4-bis(2-(2-(2-(4-((1S,2S)-4,6-dichloro-2-(dimethylamino)-2,3-dihydro-1H-inden-1-yloxy)phenylsulfonamido)ethoxy)ethoxy)ethyl)-2,3-dihydroxysuccinamide], in assay [1], the IC50 was under 100 nM and the “% inhibition (human Preincubation assay)” value was “C (>70%)”. In assay [2], the “FFS (fecal form score)” value worked out at 1 and the response vs control in vivo at 10 mg/kg is under 35%.
